These results are taken from patent US8450479B2, “3-substituted-4-oxo-3,4-dihydro-imidazo[5,1-d][1,2,3,5-tetrazine-8-carboxylic acid amides and their use” (Pharminox Limited, priority 2007, dated 2013).

Where “and” joins values, the source holds several entries; their conditions need not be identical. Identical values can stand only once. Like-named read-outs stand apart in the source and are kept apart here.

For orientation: GI50 means the concentration giving 50% growth inhibition.

This experiment relates to Glioma SNB19VR (MGMT−) (TMZ resistant). As to the kind of experiment: MTT assay for 7-day toxicity assay. Type of experiment: cell-based. (Formazan colour is commonly taken as a measure of viable cells.)
Setting [1] is: 168 h, Glioma SNB19VR (MGMT−, TMZ resistant), 7-day MTT, single determinations, read-out: GI50.
Where [2] appears, read: Glioma SNB19VR (MGMT−, TMZ resistant), 7-day MTT, single determinations, read-out: GI50.
The mark [3] stands for this setting: Glioma SNB19VR (MGMT−) (TMZ resistant), read-out: GI50.

As to `C#CCn1nnc2c(C(N)=O)ncn2c1=O` [EE-001, 3-Propargyl-8-carbamoylimidazotetrazin-4-one], the GI50 under setting [1] is 54.9 µM. `CCOC(=O)Cn1nnc2c(C(N)=O)ncn2c1=O` [PX-016]: the GI50 by setting is: under setting [1], 37.6 µM; under setting [2], 62 µM. In the case of `COCn1nnc2c(C(N)=O)ncn2c1=O` [PX-020], under setting [3], the GI50 was 25.8 µM and 28.9 µM and 27.8 µM and 29.2 µM and 16.8 µM.

Take `Cn1nnc2c(C(N)=O)ncn2c1=O` [TMZ, 3-Methyl-4-oxo-3,4-dihydro-imidazo[5,1-d][1,2,3,5]tetrazine-8-carboxylic acid amide, reference compound]: the 50% growth inhibitory concentration (GI50) is 314 µM under setting [1]; 280 µM under setting [3]; 251 µM and 275 µM and 282 µM (2×) and 294 µM and 263 µM under setting [2]; 280 µM (Glioma SNB19VR (MGMT−, TMZ resistant), average of Table 1, read-out: TMZ GI50 Average).

For the molecule `C[C@H](c1ccccc1)n1nnc2c(C(N)=O)ncn2c1=O` [BB-001, (R)-3-(-1-Phenylethyl)-8-carbamoylimidazotetrazin-4-one], the 50% growth inhibitory concentration (GI50) under setting [1] turned out to be 46.6 µM.
